What was measured:
Type in all cases: functional
[1] = test system: SK-MEL-2; experiment: Growth inhibition of human SK-MEL-2 cells assessed as cell growth at 10^-4 M after 48 hrs by sulforhodamine B assay; conditions: SK-MEL-2, 48 h, read-out: Activity
[2] = test system: PC-3; experiment: Growth inhibition of human PC3 cells assessed as cell growth at 10^-4 M after 48 hrs by sulforhodamine B assay; conditions: PC-3, 48 h, read-out: Activity
[3] = test system: Malme-3M; experiment: Growth inhibition of human MALME-3M cells assessed as cell growth at 10^-6 M after 48 hrs by sulforhodamine B assay; conditions: read-out: Activity
[4] = test system: A498; experiment: Growth inhibition of human A498 cells assessed as cell growth at 10^-4 M after 48 hrs by sulforhodamine B assay; conditions: A498, 48 h, read-out: Activity
[5] = test system: NCI-H460; experiment: Growth inhibition of human NCI-H460 cells assessed as cell growth at 10^-5 M after 48 hrs by sulforhodamine B assay; conditions: NCI-H460, 48 h, read-out: Activity
[6] = test system: HT-29; experiment: Growth inhibition of human HT-29 cells assessed as cell growth at 10^-6 M after 48 hrs by sulforhodamine B assay; conditions: HT-29, 48 h, read-out: Activity
[7] = test system: CAKI-1; experiment: Growth inhibition of human CAKI-1 cells assessed as cell growth at 10^-6 M after 48 hrs by sulforhodamine B assay; conditions: CAKI-1, 48 h, read-out: Activity
[8] = test system: RPMI-8226; experiment: Growth inhibition of human RPMI8226 cells assessed as cell growth at 10^-7 M after 48 hrs by sulforhodamine B assay; conditions: RPMI-8226, 48 h, read-out: Activity
[9] = test system: MDA-MB-468; experiment: Growth inhibition of human MDA-MB-468 cells assessed as cell growth at 10^-6 M after 48 hrs by sulforhodamine B assay; conditions: MDA-MB-468, 48 h, read-out: Activity
[10] = test system: SNB-75; experiment: Growth inhibition of human SNB75 cells assessed as cell growth at 10^-5 M after 48 hrs by sulforhodamine B assay; conditions: SNB-75, 48 h, read-out: Activity
[11] = test system: HOP-62; experiment: Growth inhibition of human HOP62 cells assessed as cell growth at 10^-7 M after 48 hrs by sulforhodamine B assay; conditions: HOP-62, 48 h, read-out: Activity
[12] = test system: SR; experiment: Growth inhibition of human SR cells assessed as cell growth at 10^-4 M after 48 hrs by sulforhodamine B assay; conditions: read-out: Activity
[13] = test system: NCI-H460; experiment: Growth inhibition of human NCI-H460 cells assessed as cell growth at 10^-6 M after 48 hrs by sulforhodamine B assay; conditions: NCI-H460, 48 h, read-out: Activity
[14] = test system: HCT-116; experiment: Growth inhibition of human HCT116 cells assessed as cell growth at 10^-8 M after 48 hrs by sulforhodamine B assay; conditions: HCT-116, 48 h, read-out: Activity
[15] = test system: RXF 393; experiment: Growth inhibition of human RXF393 cells assessed as cell growth at 10^-8 M after 48 hrs by sulforhodamine B assay; conditions: RXF 393, 48 h, read-out: Activity
[16] = test system: RPMI-8226; experiment: Growth inhibition of human RPMI8226 cells assessed as cell growth at 10^-6 M after 48 hrs by sulforhodamine B assay; conditions: RPMI-8226, 48 h, read-out: Activity
[17] = test system: OVCAR-4; experiment: Growth inhibition of human OVCAR4 cells assessed as cell growth at 10^-8 M after 48 hrs by sulforhodamine B assay; conditions: OVCAR-4, 48 h, read-out: Activity
[18] = test system: MDA-MB-231; experiment: Growth inhibition of human MDA-MB-231 cells assessed as cell growth at 10^-8 M after 48 hrs by sulforhodamine B assay; conditions: MDA-MB-231, 48 h, read-out: Activity
[19] = test system: BT-549; experiment: Growth inhibition of human BT549 cells assessed as cell growth at 10^-5 M after 48 hrs by sulforhodamine B assay; conditions: BT-549, 48 h, read-out: Activity
[20] = test system: MDA-MB-435; experiment: Growth inhibition of human MDA-MB-435 cells assessed as cell growth at 10^-4 M after 48 hrs by sulforhodamine B assay; conditions: MDA-MB-435, 48 h, read-out: Activity
[21] = test system: RPMI-8226; experiment: Growth inhibition of human RPMI8226 cells assessed as cell growth at 10^-8 M after 48 hrs by sulforhodamine B assay; conditions: RPMI-8226, 48 h, read-out: Activity
[22] = test system: PC-3; experiment: Growth inhibition of human PC3 cells assessed as cell growth at 10^-6 M after 48 hrs by sulforhodamine B assay; conditions: PC-3, 48 h, read-out: Activity
[23] = Growth inhibition of human NCI-ADR-RES cells assessed as cell growth at 10^-5 M after 48 hrs by sulforhodamine B assay; conditions: read-out: Activity
[24] = test system: HCT-116; experiment: Growth inhibition of human HCT116 cells assessed as cell growth at 10^-5 M after 48 hrs by sulforhodamine B assay; conditions: HCT-116, 48 h, read-out: Activity
[25] = Growth inhibition of human HCC2998 cells assessed as cell growth at 10^-6 M after 48 hrs by sulforhodamine B assay; conditions: HCC 2998, 48 h, read-out: Activity
[26] = test system: COLO 205; experiment: Growth inhibition of human COLO205 cells assessed as cell growth at 10^-5 M after 48 hrs by sulforhodamine B assay; conditions: COLO 205, 48 h, read-out: Activity
[27] = test system: RXF 393; experiment: Growth inhibition of human RXF393 cells assessed as cell growth at 10^-5 M after 48 hrs by sulforhodamine B assay; conditions: RXF 393, 48 h, read-out: Activity
[28] = Growth inhibition of human Hs 578T cells assessed as cell growth at 10^-8 M after 48 hrs by sulforhodamine B assay; conditions: read-out: Activity
[29] = test system: BT-549; experiment: Growth inhibition of human BT549 cells assessed as cell growth at 10^-7 M after 48 hrs by sulforhodamine B assay; conditions: BT-549, 48 h, read-out: Activity
[30] = test system: SW-620; experiment: Growth inhibition of human SW620 cells assessed as cell growth at 10^-4 M after 48 hrs by sulforhodamine B assay; conditions: SW-620, 48 h, read-out: Activity
[31] = test system: MOLT-4; experiment: Growth inhibition of human MOLT4 cells assessed as cell growth at 10^-6 M after 48 hrs by sulforhodamine B assay; conditions: MOLT-4, 48 h, read-out: Activity
[32] = test system: HL-60(TB); experiment: Growth inhibition of human HL-60(TB) cells assessed as cell growth at 10^-8 M after 48 hrs by sulforhodamine B assay; conditions: HL-60, 48 h, read-out: Activity
[33] = test system: ACHN; experiment: Growth inhibition of human ACHN cells assessed as cell growth at 10^-4 M after 48 hrs by sulforhodamine B assay; conditions: read-out: Activity
[34] = test system: K562; experiment: Growth inhibition of human K562 cells assessed as cell growth at 10^-7 M after 48 hrs by sulforhodamine B assay; conditions: K562, 48 h, read-out: Activity
[35] = test system: NCI-H522; experiment: Growth inhibition of human NCI-H522 cells assessed as cell growth at 10^-8 M after 48 hrs by sulforhodamine B assay; conditions: NCI-H522, 48 h, read-out: Activity
[36] = test system: SF-295; experiment: Growth inhibition of human SF295 cells assessed as cell growth at 10^-8 M after 48 hrs by sulforhodamine B assay; conditions: SF-295, 48 h, read-out: Activity
[37] = test system: OVCAR-8; experiment: Growth inhibition of human OVCAR8 cells assessed as cell growth at 10^-5 M after 48 hrs by sulforhodamine B assay; conditions: OVCAR-8, 48 h, read-out: Activity

| SMILES | growth at 100 µM [1] [%] | growth at 100 µM [2] [%] | growth at 1 µM [3] [%] | growth at 100 µM [4] [%] | growth at 10 µM [5] [%] | growth at 1 µM [6] [%] | growth at 1 µM [7] [%] | growth at 0.1 µM [8] [%] | growth at 1 µM [9] [%] | growth at 10 µM [10] [%] | growth at 0.1 µM [11] [%] | growth at 100 µM [12] [%] | growth at 1 µM [13] [%] | growth at 0.01 µM [14] [%] | growth at 0.01 µM [15] [%] | growth at 1 µM [16] [%] | growth at 0.01 µM [17] [%] | growth at 0.01 µM [18] [%] | growth at 10 µM [19] [%] | growth at 100 µM [20] [%] | further results |
| --- | --- | --- | --- | --- | --- | --- | --- | --- | --- | --- | --- | --- | --- | --- | --- | --- | --- | --- | --- | --- | --- |
| COc1cc(-c2nn(-c3cccc(NC(=O)c4ccccc4)c3)cc2-c2ccncc2)ccc1Cl | -30 | 3 | 38 | -7 | 7 | 17 | 52 | 96 | 17 | 1 | 98 | 12 | 17 | 97 | 100 | 46 | 93 | 103 | 26 | -67 | growth at 0.01 µM [21]: 102%; growth at 1 µM [22]: 29%; growth at 10 µM [23]: 5%; growth at 10 µM [24]: 17%; growth at 1 µM [25]: 75%; growth at 10 µM [26]: -31%; growth at 10 µM [27]: -9%; growth at 0.01 µM [28]: 103%; growth at 0.1 µM [29]: 88%; growth at 100 µM [30]: 14%; growth at 1 µM [31]: 41%; growth at 0.01 µM [32]: 96%; growth at 100 µM [33]: 27%; growth at 0.1 µM [34]: 99%; growth at 0.01 µM [35]: 91%; growth at 0.01 µM [36]: 93%; growth at 10 µM [37]: 58% |
| COc1cc(-c2nn(-c3cccc(NC(=O)c4ccc(N5CCOCC5)c(C(F)(F)F)c4)c3)cc2-c2ccncc2)ccc1Cl | -34 | -5 | 33 | -24 | 1 | 9 | 21 | 88 | -9 | -13 | 90 | 6 | 16 | 99 | 118 | 16 | 97 | 95 | 25 | -34 | growth at 0.01 µM [21]: 102%; growth at 1 µM [22]: 15%; growth at 10 µM [23]: 2%; growth at 10 µM [24]: 8%; growth at 1 µM [25]: 52%; growth at 10 µM [26]: -84%; growth at 10 µM [27]: -41%; growth at 0.01 µM [28]: 96%; growth at 0.1 µM [29]: 95%; growth at 100 µM [30]: 10%; growth at 1 µM [31]: 38%; growth at 0.01 µM [32]: 109%; growth at 100 µM [33]: 2%; growth at 0.1 µM [34]: 29%; growth at 0.01 µM [35]: 97%; growth at 0.01 µM [36]: 89%; growth at 10 µM [37]: 3% |

From ChEMBL document CHEMBL2440076, “New triarylpyrazoles as broad-spectrum anticancer agents: design, synthesis, and biological evaluation” (Eur J Med Chem, 2013)
